# In patent US20130035326A1 (AMBIT BIOSCIENCES CORPORATION, priority 2009, published 2013):
# Key:
# [1] = biological target: kinase panel containing either 359 or 386 distinct kinases; test: Selectivity score S10 from competition binding against a panel of kinases; details: compounds at 10 μM; panel of 386 distinct kinases
# Description: Competition binding assays used herein were developed, validated and performed as described in Fabian et al., Nature Biotechnology 2005, 23,329-336. Kinases were produced as fusions to T7 phage (See, Fabian et al. or WO04/015142) or alternatively, the kinases were expressed in HEK-293 cells and subsequently tagged with DNA for PCR detection (See, WO08/005,310). For the binding assays, streptavidin-coated magnetic beads were treated with biotinylated affinity ligands for 30 min at room temperature to generate affinity resins. The liganded beads were blocked with excess biotin and washed with blocking buffer (SeaBlock (Pierce), 1% BSA, 0.05% Tween 20, 1 mM DTT) to remove unbound ligand and to reduce non-specific binding. Binding reactions were assembled by combining kinase, liganded affinity beads, and test compounds in 1× binding buffer (20% SeaBlock, 0.17×PBS, 0.05% Tween 20, 6 mM DTT). Test compounds were prepared as 100× stocks in DMSO and diluted into the aqueous environment. Kds were determined using an eleven point threefold serial dilutions. DMSO or control compounds were was added to control assays lacking a test compound. Primary screen assays were performed in polypropylene 384-well plates in a final volume of 20-40 μL, while Kd determinations were performed in polystyrene 96-well plates in a final volume of 135 μL. The assay plates were incubated at room temperature with shaking for 1 hour to allow the binding reactions to reach equilibrium, and the affinity beads were washed extensively with wash buffer (1×PBS, 0.05% Tween 20) to remove unbound protein. The beads were then resuspended in elution buffer (1×PBS, 0.05% Tween 20, 0.5 μM non-biotinylated affinity ligand) and incubated at room temperature with shaking for 30 min. The kinase concentration in the eluates was measured by quantitative PCR.
# A selectivity score (S10) is a quantitative measure of selectivity of a compound against a panel of kinases. An S10 was calculated for a compound by dividing the number of kinases found to have a percent of control (DMSO) less than 10 by the total number of distinct kinases tested (excluding mutant variants). Percent of control (POC) is calculated by subtracting the signal of the control compound (POC=0) from the signal of the test compound and dividing the outcome by the signal of DMSO (POC=100) minus the signal of the control compound. For the compounds disclosed herein, S10 scores were obtained by testing the compounds at 10 μM concentration in a kinase panel containing either 359 or 386 distinct kinases.
# FLT3 kinase = biological target: T1, FLT3 kinase (Homo sapiens, UniProt P36888); test: Competition binding assay, FLT3 Kd
# T1 construct: made in house; host or cells: T7 phage display or HEK-293 cells
# T1 sequence (P36888 27-993): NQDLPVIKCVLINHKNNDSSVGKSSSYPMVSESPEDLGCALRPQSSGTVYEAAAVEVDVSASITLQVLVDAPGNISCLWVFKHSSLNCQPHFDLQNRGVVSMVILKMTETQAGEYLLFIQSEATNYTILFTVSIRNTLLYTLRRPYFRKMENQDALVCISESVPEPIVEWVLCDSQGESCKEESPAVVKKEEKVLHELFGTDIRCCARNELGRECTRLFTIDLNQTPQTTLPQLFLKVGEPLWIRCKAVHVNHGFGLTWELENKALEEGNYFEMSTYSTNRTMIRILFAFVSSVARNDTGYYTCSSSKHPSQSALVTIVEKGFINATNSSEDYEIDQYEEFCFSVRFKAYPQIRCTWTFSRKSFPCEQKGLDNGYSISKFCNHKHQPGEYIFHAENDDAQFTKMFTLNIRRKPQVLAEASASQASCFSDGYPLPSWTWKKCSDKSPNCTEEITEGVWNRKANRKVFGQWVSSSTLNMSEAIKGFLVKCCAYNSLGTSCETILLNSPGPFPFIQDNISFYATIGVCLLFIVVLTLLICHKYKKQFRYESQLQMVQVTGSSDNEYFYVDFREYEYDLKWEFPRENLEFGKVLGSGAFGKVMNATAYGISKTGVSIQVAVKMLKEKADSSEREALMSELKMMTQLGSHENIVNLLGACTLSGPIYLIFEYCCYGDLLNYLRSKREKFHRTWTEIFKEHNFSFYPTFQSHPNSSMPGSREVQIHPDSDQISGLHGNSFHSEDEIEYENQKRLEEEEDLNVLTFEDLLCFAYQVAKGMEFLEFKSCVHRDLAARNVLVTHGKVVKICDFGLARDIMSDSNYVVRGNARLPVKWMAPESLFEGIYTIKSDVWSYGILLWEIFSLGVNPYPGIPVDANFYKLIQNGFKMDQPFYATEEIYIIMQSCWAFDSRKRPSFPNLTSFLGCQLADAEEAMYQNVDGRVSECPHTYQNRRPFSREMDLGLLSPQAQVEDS
# How it was run: (§1)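 Steps: biotinylated ligand loaded on streptavidin magnetic beads 30 min; beads blocked with biotin; kinase, beads and compound combined 1 hour at room temperature; beads washed, eluted 30 min with 0.5 μM free ligand; eluted kinase measured by quantitative PCR. Kd derived from eleven-point threefold dilutions.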
# KIT kinase = biological target: T2, KIT kinase (Homo sapiens, UniProt P10721); test: Competition binding assay, KIT Kd
# T2 construct: made in house; host or cells: T7 phage display or HEK-293 cells
# T2 sequence (P10721 26-976): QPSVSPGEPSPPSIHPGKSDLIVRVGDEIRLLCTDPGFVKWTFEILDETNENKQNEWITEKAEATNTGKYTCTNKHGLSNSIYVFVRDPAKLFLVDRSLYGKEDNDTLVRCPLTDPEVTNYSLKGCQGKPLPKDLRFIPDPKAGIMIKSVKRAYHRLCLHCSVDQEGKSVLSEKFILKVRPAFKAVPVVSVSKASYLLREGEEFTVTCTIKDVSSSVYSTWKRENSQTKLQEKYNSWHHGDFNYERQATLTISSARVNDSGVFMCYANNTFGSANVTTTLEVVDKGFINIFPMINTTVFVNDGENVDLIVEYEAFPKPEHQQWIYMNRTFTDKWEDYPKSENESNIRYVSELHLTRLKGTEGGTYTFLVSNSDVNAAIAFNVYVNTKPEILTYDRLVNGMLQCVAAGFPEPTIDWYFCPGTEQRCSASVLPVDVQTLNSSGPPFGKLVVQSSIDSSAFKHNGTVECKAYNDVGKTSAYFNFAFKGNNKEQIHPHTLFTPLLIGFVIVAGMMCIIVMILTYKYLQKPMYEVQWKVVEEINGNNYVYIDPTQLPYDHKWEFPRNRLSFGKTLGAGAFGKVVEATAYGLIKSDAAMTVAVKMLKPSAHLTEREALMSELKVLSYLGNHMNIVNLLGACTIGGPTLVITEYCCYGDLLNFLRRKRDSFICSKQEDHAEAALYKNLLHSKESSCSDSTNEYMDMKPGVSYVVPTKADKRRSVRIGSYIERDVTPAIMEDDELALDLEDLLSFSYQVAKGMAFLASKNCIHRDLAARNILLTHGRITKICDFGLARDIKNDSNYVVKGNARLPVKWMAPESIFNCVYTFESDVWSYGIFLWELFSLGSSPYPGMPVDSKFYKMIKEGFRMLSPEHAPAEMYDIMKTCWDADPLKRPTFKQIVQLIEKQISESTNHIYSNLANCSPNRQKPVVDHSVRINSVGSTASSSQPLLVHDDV
# How it was run: as §1
# CSF-1R kinase = biological target: T3, CSF-1R kinase (Homo sapiens, UniProt P07333); test: Competition binding assay, CSF-1R Kd
# T3 construct: made in house; host or cells: T7 phage display or HEK-293 cells
# T3 sequence (P07333 20-972): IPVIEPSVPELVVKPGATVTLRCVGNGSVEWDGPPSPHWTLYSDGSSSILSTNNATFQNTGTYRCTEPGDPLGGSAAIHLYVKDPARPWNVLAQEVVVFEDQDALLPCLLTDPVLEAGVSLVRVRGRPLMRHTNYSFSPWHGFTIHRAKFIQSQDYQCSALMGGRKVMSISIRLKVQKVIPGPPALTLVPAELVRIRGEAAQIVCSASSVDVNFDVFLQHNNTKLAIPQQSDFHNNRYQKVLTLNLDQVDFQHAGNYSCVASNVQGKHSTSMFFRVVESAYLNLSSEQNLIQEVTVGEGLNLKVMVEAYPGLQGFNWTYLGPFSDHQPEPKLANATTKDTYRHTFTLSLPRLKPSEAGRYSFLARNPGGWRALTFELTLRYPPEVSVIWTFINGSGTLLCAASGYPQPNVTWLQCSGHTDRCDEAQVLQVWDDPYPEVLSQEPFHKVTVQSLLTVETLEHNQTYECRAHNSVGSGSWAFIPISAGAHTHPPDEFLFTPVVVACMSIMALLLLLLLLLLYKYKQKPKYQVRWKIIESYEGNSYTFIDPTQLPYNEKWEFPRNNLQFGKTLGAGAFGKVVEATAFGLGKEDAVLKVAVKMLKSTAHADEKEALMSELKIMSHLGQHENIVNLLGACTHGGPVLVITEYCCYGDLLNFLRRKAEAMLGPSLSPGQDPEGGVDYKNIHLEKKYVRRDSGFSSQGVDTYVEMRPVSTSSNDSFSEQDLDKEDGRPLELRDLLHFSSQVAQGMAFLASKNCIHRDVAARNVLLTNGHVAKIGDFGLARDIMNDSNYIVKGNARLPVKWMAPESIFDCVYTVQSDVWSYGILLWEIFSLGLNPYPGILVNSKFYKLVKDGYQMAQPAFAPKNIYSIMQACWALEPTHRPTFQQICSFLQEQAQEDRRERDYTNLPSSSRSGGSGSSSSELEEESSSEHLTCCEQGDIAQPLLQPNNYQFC
# How it was run: as §1
# MV4-11 cells = test: MV4-11 cell proliferation assay (Alamar Blue); format: cell-based; details: Homo sapiens, MV4-11, 72 h, 3 days incubation
# How it was run: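 Flt3-ITD MV4-11 cells were serum-starved overnight in Iscove's with 0.5% FBS, then given compound at 9 half-log concentrations (0.5% DMSO) for 3 days at 37° C. Alamar Blue reduction was read after 3 h by fluorescence (560/590 nm). IC50 is the mean of duplicates versus negative control.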
Structure (SMILES),Kinase specificty: S(10)-386 panel [1],Kd (FLT3 kinase) [nM],Kd (KIT kinase) [nM],Kd (CSF-1R kinase) [nM],IC50 (MV4-11 cells) [nM]
CS(=O)(=O)O.Nc1ncc(-c2ccc(CC(=O)Nc3cc(C4(C(F)(F)F)CC4)on3)cc2)cc1F [Example 127],B (0.1<B≦0.2 nM),–,–,–,–
CC(C)(C)c1cc(NC(=O)Cc2ccc(-c3ccc(N)nc3C(F)(F)F)cc2)no1.CS(=O)(=O)O [Example 129],A (A≦0.1),–,–,–,–
CS(=O)(=O)O.Cc1cc(-c2ccc(CC(=O)Nc3cc(C4(C(F)(F)F)CC4)on3)cc2)cnc1N [Example 130],A (A≦0.1),–,–,–,–
CC(C)(C)c1cc(NC(=O)Cc2ccc(-c3ccc(N)nc3)c(C(F)(F)F)c2)no1 [Example 180],–,10 to 100,> 100,> 100,> 100
Cn1[nH]c2ncc(-c3ccc(CC(=O)Nc4cc(C(C)(C)C)on4)cc3)cc2c1=O [Example 181],–,1 to 10,10 to 100,10 to 100,1 to 10
CC(C)(C)c1cc(NC(=O)C(O)c2ccc(-c3ccc(N)nc3)cc2)no1 (centres unmarked) [Example 182],–,1 to 10,1 to 10,10 to 100,1 to 10
CC(C)(C)c1cc(NC(=O)Cc2ccc(-c3cnc(N)cc3F)cc2)on1 [Example 183],–,≤ 1,1 to 10,≤ 10,≤ 1
CC(F)(F)C1(c2cc(NC(=O)Cc3ccc(-c4cnc(N)cc4F)cc3)no2)CC1 [Example 184],–,≤ 1,1 to 10,≤ 10,≤ 1
CC1(c2cc(NC(=O)Cc3ccc(-c4ccc(NCCS(C)(=O)=O)nc4)cc3)no2)CC1 [Example 185],–,≤ 1,≤ 1,≤ 10,1 to 10
CC(C)c1cc(NC(=O)Cc2ccc(-c3ccc(N)nc3)cc2)no1 [Example 186],–,≤ 1,≤ 1,≤ 10,≤ 1
CN1CC(=O)Nc2ncc(-c3ccc(CC(=O)Nc4cc(C(C)(C)C)on4)cc3)cc2C1 [Example 190],–,1 to 10,1 to 10,100 to 500,10 to 100
